What all share (experiment): NCI tumour cell line growth inhibition, 48 h
Assay [1] concerns NCI-H23.
Assay [2] concerns HOP-62.
Assay [3] deals with 786-0.
Assay [4] concerns HOP-92.
Assay [5] relates to MOLT-4.
In assay [6] the test system is SNB-19.
For assay [7], the system named is TK-10.
The subject of assay [8] is SF-268.
Assay [9] has as its system SNB-75.
In assay [10] the test system is LOX IMVI.
Assay [11] relates to HCT-116.
Assay [12] has as its system SN12C.
Assay [13] has as its system SK-MEL-5.
Assay [14] has as its system COLO 205.
Assay [15] concerns SW-620.
For assay [16], the system named is HCT-15.
Assay [17] has as its system HT-29.
Assay [18] deals with HCC 2998.

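Test compounds were applied to cells in 96-well plates for 48 hours at 5 doses. GI50: concentration for 50% inhibition of growth.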 The source made the active and inactive calls. Cut-off read from the data, not from the text of the source: active = GI50 up to about 1.1 µM and inactive = higher. Bounds are passed on as bounds.

Regarding `O=C(c1cccs1)N(C(=S)N1CCN(c2ccccc2)CC1)C1CCCCC1`, the GI50 in assay [1], in assay [2], in [3], in assay [4], in [5] and in assay [6] was > 100 µM (inactive) in each case. For the same compound, the GI50 in [7], in assay [8], in assay [9], in assay [10], in [11] and in assay [12] was > 100 µM (inactive) each time. The GI50 in [13] is > 100 µM (inactive); in assay [14] it was > 100 µM (inactive); in assay [15], > 100 µM (inactive); in assay [16], over 100 µM; in assay [17] it was > 100 µM (inactive).

Consider `NNC(=S)N/N=C(\CCCC(=O)NCCc1ccccc1)CC(=O)c1ccccc1`, for which the GI50 in [1], in [2], in assay [3], in assay [4], in assay [6] and in [7] was > 100 µM (inactive) each time. The GI50 in [8], in assay [18], in assay [11], in assay [12], in assay [13] and in assay [14] was > 100 µM (inactive) in each case. The GI50 is > 100 µM (inactive) in assay [15], over 100 µM in [16] and > 100 µM (inactive) in [17].

For `O=P(Nc1ccccc1)(Oc1ccccc1)N(CCCl)CCCl` (stereo not given), the GI50 was > 100 µM (inactive) in [1]; > 100 µM (inactive) in assay [2]; 26.4 µM (inactive) in [4]; > 100 µM (inactive) in assay [5]; > 100 µM (inactive) in assay [7]; > 100 µM (inactive) in assay [8]. Besides, the GI50 is > 100 µM (inactive) in assay [9]; > 100 µM (inactive) in assay [18]; > 100 µM (inactive) in assay [11]; > 100 µM (inactive) in assay [12]; 39.4 µM (inactive) in assay [13]; > 100 µM (inactive) in [14]. Further, the values for the GI50 in assay [15], in [16] and in assay [17] were > 100 µM (inactive), over 100 µM and > 100 µM (inactive), respectively.

As to `COc1cccc(NC(=O)CC(=O)N2N=C(N(CCC#N)c3ccccc3C)CC2c2ccccc2)c1` (stereo not given), the GI50 in assay [1], in [2], in [3], in assay [4], in assay [5] and in assay [6] was > 100 µM (inactive) throughout. Moreover, the GI50 in [8], in assay [9], in assay [18], in assay [11], in assay [12] and in assay [13] was > 100 µM (inactive) each time. Also, the GI50 in [14] is > 100 µM (inactive); in [15], > 100 µM (inactive); in assay [16] it was over 100 µM; in [17], > 100 µM (inactive).

Consider `COc1ccc(OC(C)C(=O)O)c2c(=O)ccccc12` (stereo not given), for which the GI50 in assay [1], in assay [2], in assay [3], in [5], in assay [6] and in assay [7] was > 100 µM (inactive) throughout. Further, the GI50 in [8], in assay [9], in assay [10], in assay [18], in assay [12] and in assay [13] was > 100 µM (inactive) in each case. For the same compound, the GI50 was > 100 µM (inactive) in [14], > 100 µM (inactive) in assay [15], over 100 µM in assay [16] and > 100 µM (inactive) in [17].

Take `CCCc1ccc(NCc2cc(OC)c(OC)c(OC)c2)cc1`: the GI50 was 22 µM (inactive) in assay [1]; 34.1 µM (inactive) in [2]; 22.4 µM (inactive) in assay [3]; 22.9 µM (inactive) in assay [4]; 18.2 µM (inactive) in assay [5]; 36.4 µM (inactive) in assay [6]. Further, the GI50 is 59.8 µM (inactive) in assay [7]; 27.7 µM (inactive) in [8]; 29 µM (inactive) in assay [9]; 15.7 µM (inactive) in assay [10]; 24.7 µM (inactive) in assay [11]; 22.3 µM (inactive) in [12]. Also, the GI50 in assay [13] is 15.5 µM (inactive); in assay [16] it was 17.7 µM; in assay [17] it was 23.6 µM (inactive).

On to `C=C1CC[C@H]2C(=O)OC(c3ccoc3)C[C@]2(C)C/C=C\C=C/1C(=O)OC` (stereo not given in full), for which the GI50 in assay [1] was 11.4 µM (inactive); in assay [2] it was > 25 µM (inactive); in assay [3], > 25 µM (inactive); in assay [4] it was > 25 µM (inactive); in assay [6], > 25 µM (inactive); in assay [7], > 25 µM (inactive). For the same compound, the GI50 is 24 µM (inactive) in assay [9]; > 25 µM (inactive) in [10]; > 25 µM (inactive) in assay [18]; > 25 µM (inactive) in assay [11]; > 25 µM (inactive) in assay [12]; > 25 µM (inactive) in assay [13]. Also, the GI50 was > 25 µM (inactive) in assay [14], > 25 µM (inactive) in assay [15], over 25 µM in [16] and > 25 µM (inactive) in assay [17].

For `O=C1c2ccccc2C(=O)c2c1ccc1c2N=C(c2ccc(Br)cc2)CC(c2cccc3ccccc23)N1` (stereo not given), the GI50 in assay [1] is > 100 µM (inactive); in assay [2], > 100 µM (inactive); in assay [3], > 100 µM (inactive); in [5], > 10 µM (inactive); in [6], > 100 µM (inactive); in [7] it was > 100 µM (inactive). Also, the GI50 in assay [8] is > 100 µM (inactive); in assay [9], 94.6 µM (inactive); in assay [10] it was > 100 µM (inactive); in [18], > 100 µM (inactive); in [12], > 100 µM (inactive); in [13], > 100 µM (inactive). In addition, the GI50 in [14] is > 100 µM (inactive); in assay [15] it was > 100 µM (inactive); in [16], over 100 µM; in [17] it was > 100 µM (inactive).

For the compound `O=C1CC2(CCC3=C(O2)c2ccccc2NC(=O)C3)C(=O)c2ccccc2N1` (stereo not given), the GI50 was > 100 µM (inactive) in [1]; > 100 µM (inactive) in assay [2]; > 100 µM (inactive) in assay [3]; > 100 µM (inactive) in assay [5]; 98.6 µM (inactive) in assay [6]; > 100 µM (inactive) in assay [7]. In addition, the GI50 in assay [8] was > 100 µM (inactive); in assay [9] it was 22.2 µM (inactive); in assay [10], > 100 µM (inactive); in assay [11] it was > 100 µM (inactive); in [12], > 100 µM (inactive); in assay [13], > 100 µM (inactive). In addition, the GI50 is > 100 µM (inactive) in assay [14], > 100 µM (inactive) in [15], over 100 µM in assay [16] and > 100 µM (inactive) in assay [17].

Consider `CC(C)CCCC(C)[C@H]1CCC2[C@@H]3CCC4Nc5nocc5C[C@]4(C)C3CC[C@@]21C` (stereo not given in full), for which the GI50 was 14.6 µM (inactive) in assay [1]; 47.1 µM (inactive) in assay [2]; 11.4 µM (inactive) in assay [3]; 18.2 µM (inactive) in assay [5]; 21.2 µM (inactive) in [6]; 8.07 µM (inactive) in assay [7]. In addition, the GI50 in [8] was 17.2 µM (inactive); in assay [9] it was 15.6 µM (inactive); in assay [10], 2.23 µM (inactive); in [18] it was 15.5 µM (inactive); in [11] it was 18.4 µM (inactive); in assay [12] it was 18.1 µM (inactive). Also, the GI50 is 14.6 µM (inactive) in assay [13]; 6.14 µM (inactive) in [14]; 15.1 µM (inactive) in assay [15]; 14.6 µM in [16]; 18.5 µM (inactive) in assay [17].

As for `C[C@]12C/C(=C/O)C(=O)C(O)=C1CC[C@@H]1C2CC[C@@]2(C)C1CC[C@@H]2O` (stereo not given in full), the GI50 in [1] was 17.4 µM (inactive); in [2], 46.7 µM (inactive); in [3], 33.3 µM (inactive); in [4], 23.1 µM (inactive); in assay [5], 26.4 µM (inactive); in assay [6], 18.3 µM (inactive). The GI50 was 42.1 µM (inactive) in assay [7]; 24.5 µM (inactive) in assay [8]; 20.4 µM (inactive) in [9]; 12 µM (inactive) in assay [10]; 25.9 µM (inactive) in assay [12]; 20.2 µM (inactive) in [13]. Besides, the GI50 in assay [14] was 21.2 µM (inactive); in [15], 37 µM (inactive); in [16] it was 21.5 µM; in [17], 25.3 µM (inactive).

For the compound `CC(=O)N(C)C=C1C(=O)N(C)C(=O)N(C)C1=O`, the GI50 in assay [1], in assay [3], in [4], in assay [5], in assay [6] and in [7] was > 100 µM (inactive) each time. The GI50 in [9], in assay [10], in [18], in assay [11], in assay [12] and in assay [13] was > 100 µM (inactive) throughout. Besides, the results for the GI50 in assay [15], in assay [16] and in assay [17] were > 100 µM (inactive), over 100 µM and > 100 µM (inactive), respectively.
